# From patent US6737383B1, “Herbicidal oxadiazolidines” (priority 1999, dated 2004)
# Experiments:
# bedstraw = assay: Test B pre/postemergence bedstraw; type: in vivo, Galium aparine
# How it was run: (§1)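 Herbicidal effect was estimated by eye on a ten-point control scale after plants spent twelve to sixteen days in a greenhouse following soil or foliar treatment. Foliar sprays targeted plants at one to four leaves; all doses were formulated in a non-phytotoxic solvent with surfactant.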
# blackgrass = assay: Test B pre/postemergence blackgrass; type: in vivo, Alopecurus myosuroides
# How it was run: as §1
# surinam grass = assay: Test B pre/postemergence surinam grass; type: in vivo, Brachiaria decumbens
# How it was run: as §1
# cocklebur = assay: Test B pre/postemergence cocklebur; type: in vivo, Xanthium strumarium
# How it was run: as §1
# giant foxtail = assay: Test B pre/postemergence giant foxtail; type: in vivo, Setaria faberii
# How it was run: as §1
# morningglory = assay: Test B pre/postemergence morningglory; type: in vivo, Ipomoea hederacea
# How it was run: as §1
# pigweed = assay: Test B pre/postemergence pigweed; type: in vivo, Amaranthus retroflexus
# How it was run: as §1
# rape = assay: Test B pre/postemergence rape; type: in vivo, Brassica napus
# How it was run: as §1
# soybean = assay: Test B pre/postemergence soybean; type: in vivo, Glycine max
# How it was run: as §1
# sugar beet = assay: Test B pre/postemergence sugar beet; type: in vivo, Beta vulgaris
# How it was run: as §1
# wheat = assay: Test B pre/postemergence wheat; type: in vivo, Triticum aestivum
# How it was run: as §1
# wild oat = assay: Test B pre/postemergence wild oat; type: in vivo, Avena fatua
# How it was run: as §1
# purple nutsedge = assay: Test B pre/postemergence purple nutsedge; type: in vivo, Cyperus rotundus
# How it was run: as §1
# smallflower flatsedge = assay: Test B flood test smallflower flatsedge; type: in vivo, Cyperus difformis
# How it was run: (§2)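 Plants were grown to the 2-leaf stage before treatment with test chemical, then held in a greenhouse for twelve to sixteen days. Injury was visually rated against untreated controls on a 0–10 scale, where 0 is no effect and 10 is complete control.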
# duck salad = assay: Test B flood test duck salad; type: in vivo, Heteranthera limosa
# How it was run: as §2
# bamyardgrass = assay: Test B flood test barnyardgrass; type: in vivo, Echinochloa crus-galli
# How it was run: as §2
# [1] = Preemergence, Rate 62 g/ha, scale of 0 to 10 where 0 is no effect and 10 is complete control
# [2] = Preemergence, Rate 250 g/ha, scale of 0 to 10 where 0 is no effect and 10 is complete control
# [3] = Preemergence, Rate 500 g/ha, scale of 0 to 10 where 0 is no effect and 10 is complete control
# [4] = Rate 62 g/ha, Postemergence, scale of 0 to 10 where 0 is no effect and 10 is complete control
# [5] = Rate 125 g/ha, Postemergence, scale 0 to 10
# [6] = Rate 125 g/ha, Preemergence, scale of 0 to 10 where 0 is no effect and 10 is complete control
# [7] = Rate 500 g/ha, Postemergence, scale 0 to 10, 0 no effect, 10 complete control
# [8] = Rate 62 g/ha, headed Pre-emergence (flood test species), scale 0 to 10 (0 no effect, 10 complete control)
# [9] = Rate 125 g/ha, Pre-emergence, flood test species, scale 0 to 10 where 0 is no effect and 10 is complete control
# [10] = Rate 250 g/ha, Pre-emergence, flood-test species, scale 0 to 10, 0 is no effect, 10 is complete control
# [11] = Rate 500 g/ha, Pre-emergence, flood test species, scale 0 to 10 (0 no effect, 10 complete control)
smiles,measurement,setting,value
Cc1nc(C)c(Cn2c(=O)on(C(=O)N(c3ccc(F)cc3)C(C)C)c2=O)s1 [Compound 232],Bedstraw plant response rating,bedstraw; [1],0
same,Bedstraw plant response rating,bedstraw; [2],0
same,"Plant response rating, Bedstraw",bedstraw; [3],0
same,Bedstraw plant response rating,bedstraw; [4],0
same,Bedstraw plant response rating,bedstraw; [5],0
same,Bedstraw plant response rating,bedstraw; [6],0
same,"Plant response rating (0 to 10; 0 is no effect, 10 is complete control), Bedstraw","bedstraw; Rate 250 g/ha, Postemergence",2
same,Bedstraw plant response rating,bedstraw; [7],2
same,Blackgrass plant response rating,blackgrass; [1],2
same,Blackgrass plant response rating,blackgrass; [2],8
same,"Plant response rating, Blackgrass",blackgrass; [3],8
same,Blackgrass plant response rating,blackgrass; [4],0
same,Blackgrass plant response rating,blackgrass; [5],2
same,Blackgrass plant response rating,blackgrass; [6],6
same,"Plant response rating (0 to 10; 0 is no effect, 10 is complete control), Blackgrass","blackgrass; Rate 250 g/ha, Postemergence",6
same,Blackgrass plant response rating,blackgrass; [7],7
same,B. signalgrass plant response rating,surinam grass; [1],0
same,B. signalgrass plant response rating,"surinam grass; Preemergence, Rate 250 g/ha, scale 0 to 10, 0 is no effect, 10 is complete control",1
same,"Plant response rating, B. signalgrass",surinam grass; [3],5
same,B. signalgrass plant response rating,surinam grass; [4],0
same,B. signalgrass plant response rating,"surinam grass; Rate 125 g/ha, Postemergence, scale 0 (no effect) to 10 (complete control)",0
same,B. signalgrass plant response rating,surinam grass; [6],0
same,"Plant response rating (0 to 10; 0 is no effect, 10 is complete control), B. signalgrass","surinam grass; Rate 250 g/ha, Postemergence",1
same,B. signalgrass plant response rating,surinam grass; [7],8
same,Cocklebur plant response rating,cocklebur; [1],0
same,Cocklebur plant response rating,cocklebur; [2],0
same,"Plant response rating, Cocklebur",cocklebur; [3],0
same,Cocklebur plant response rating,cocklebur; [4],0
same,Cocklebur plant response rating,cocklebur; [5],2
same,Cocklebur plant response rating,cocklebur; [6],0
same,"Plant response rating (0 to 10; 0 is no effect, 10 is complete control), Cocklebur","cocklebur; Rate 250 g/ha, Postemergence",2
same,Cocklebur plant response rating,cocklebur; [7],4
same,Giant foxtail plant response rating,giant foxtail; [1],6
same,Giant foxtail plant response rating,giant foxtail; [2],8
same,"Plant response rating, Giant foxtail",giant foxtail; [3],9
same,Giant foxtail plant response rating,giant foxtail; [4],0
same,Giant foxtail plant response rating,giant foxtail; [5],0
same,Giant foxtail plant response rating,giant foxtail; [6],8
same,"Plant response rating (0 to 10; 0 is no effect, 10 is complete control), Giant foxtail","giant foxtail; Rate 250 g/ha, Postemergence",2
same,Giant foxtail plant response rating,giant foxtail; [7],3
same,Morningglory plant response rating,morningglory; [1],0
same,Morningglory plant response rating,morningglory; [2],0
same,"Plant response rating, Morningglory",morningglory; [3],0
same,Morningglory plant response rating,morningglory; [4],3
same,Morningglory plant response rating,morningglory; [5],8
same,Morningglory plant response rating,morningglory; [6],0
same,"Plant response rating (0 to 10; 0 is no effect, 10 is complete control), Morningglory","morningglory; Rate 250 g/ha, Postemergence",8
same,Morningglory plant response rating,morningglory; [7],8
same,Redroot pigweed plant response rating,pigweed; [1],0
same,Redroot pigweed plant response rating,pigweed; [2],5
same,"Plant response rating, Redroot pigweed",pigweed; [3],7
same,Redroot pigweed plant response rating,pigweed; [4],2
same,Redroot pigweed plant response rating,pigweed; [5],3
same,Redroot pigweed plant response rating,pigweed; [6],0
same,"Plant response rating (0 to 10; 0 is no effect, 10 is complete control), Redroot pigweed","pigweed; Rate 250 g/ha, Postemergence",6
same,Redroot pigweed plant response rating,pigweed; [7],4
same,Rape plant response rating,rape; [1],0
same,Rape plant response rating,rape; [2],0
same,"Plant response rating, Rape",rape; [3],0
same,Rape plant response rating,rape; [4],0
same,Rape plant response rating,rape; [5],2
same,Rape plant response rating,rape; [6],0
same,"Plant response rating (0 to 10; 0 is no effect, 10 is complete control), Rape","rape; Rate 250 g/ha, Postemergence",2
same,Rape plant response rating,rape; [7],2
same,Soybean plant response rating,soybean; [1],0
same,Soybean plant response rating,soybean; [2],0
same,"Plant response rating, Soybean",soybean; [3],0
same,Soybean plant response rating,soybean; [4],3
same,Soybean plant response rating,soybean; [5],3
same,Soybean plant response rating,soybean; [6],0
same,"Plant response rating (0 to 10; 0 is no effect, 10 is complete control), Soybean","soybean; Rate 250 g/ha, Postemergence",4
same,Soybean plant response rating,soybean; [7],4
same,Sugarbeets plant response rating,sugar beet; [1],0
same,Sugarbeets plant response rating,sugar beet; [2],4
same,"Plant response rating, Sugarbeets",sugar beet; [3],4
same,Sugarbeets plant response rating,sugar beet; [4],0
same,Sugarbeets plant response rating,sugar beet; [5],2
same,Sugarbeets plant response rating,sugar beet; [6],0
same,"Plant response rating (0 to 10; 0 is no effect, 10 is complete control), Sugarbeets","sugar beet; Rate 250 g/ha, Postemergence",2
same,Sugarbeets plant response rating,sugar beet; [7],3
same,Wheat plant response rating,wheat; [1],0
same,Wheat plant response rating,wheat; [2],0
same,"Plant response rating, Wheat",wheat; [3],0
same,Wheat plant response rating,wheat; [4],0
same,Wheat plant response rating,wheat; [5],0
same,Wheat plant response rating,wheat; [6],0
same,"Plant response rating (0 to 10; 0 is no effect, 10 is complete control), Wheat","wheat; Rate 250 g/ha, Postemergence",0
same,Wheat plant response rating,wheat; [7],0
same,Wild oats plant response rating,wild oat; [1],0
same,Wild oats plant response rating,wild oat; [2],3
same,"Plant response rating, Wild oats",wild oat; [3],8
same,Wild oats plant response rating,wild oat; [4],0
same,Wild oats plant response rating,wild oat; [5],0
same,Wild oats plant response rating,wild oat; [6],0
same,"Plant response rating (0 to 10; 0 is no effect, 10 is complete control), Wild oats","wild oat; Rate 250 g/ha, Postemergence",0
same,Wild oats plant response rating,wild oat; [7],0
same,Nutsedge plant response rating,purple nutsedge; [1],0
same,Nutsedge plant response rating,purple nutsedge; [4],0
same,Nutsedge plant response rating,purple nutsedge; [5],0
same,Nutsedge plant response rating,purple nutsedge; [6],0
same,"Plant response rating (0 to 10; 0 is no effect, 10 is complete control), Nutsedge","purple nutsedge; Rate 250 g/ha, Postemergence",0
same,Nutsedge plant response rating,purple nutsedge; [7],0
same,S. Flatsedge plant response rating,smallflower flatsedge; [8],0
same,S. Flatsedge plant response rating,smallflower flatsedge; [9],0
same,S. Flatsedge plant response rating,smallflower flatsedge; [10],0
same,S. Flatsedge plant response rating,smallflower flatsedge; [11],0
same,Ducksalad plant response rating,duck salad; [8],0
same,Ducksalad plant response rating,duck salad; [9],0
same,Ducksalad plant response rating,duck salad; [10],0
same,Ducksalad plant response rating,duck salad; [11],0
same,Barnyardgrass plant response rating,bamyardgrass; [8],0
same,Barnyardgrass plant response rating,bamyardgrass; [9],0
same,Barnyardgrass plant response rating,bamyardgrass; [10],0
same,Barnyardgrass plant response rating,bamyardgrass; [11],0
